# Test results as given in ChEMBL document CHEMBL1201862, “PubChem BioAssay data set” (2004).
# The source made the active and inactive calls. Rule as the data show it, for most assays here: actives have a measured EC50 and inactives only a lower limit.
# Columns and labels:
# [1] = HEp-2 cell cytotoxicity, dose response, cytotoxicity control for RSV inhibitor project, HTS (AID 2410); assay type: functional; conditions: human respiratory syncytial virus
# [2] = target: T1, Replicative DNA helicase DnaB (Mycobacterium tuberculosis, UniProt P9WMR3); assay: DnaB intein splicing inhibitors, dose response, biochemical, cell-free fluorescence (AID 449749); assay type: functional
# T1 sequence (P9WMR3 whole entry): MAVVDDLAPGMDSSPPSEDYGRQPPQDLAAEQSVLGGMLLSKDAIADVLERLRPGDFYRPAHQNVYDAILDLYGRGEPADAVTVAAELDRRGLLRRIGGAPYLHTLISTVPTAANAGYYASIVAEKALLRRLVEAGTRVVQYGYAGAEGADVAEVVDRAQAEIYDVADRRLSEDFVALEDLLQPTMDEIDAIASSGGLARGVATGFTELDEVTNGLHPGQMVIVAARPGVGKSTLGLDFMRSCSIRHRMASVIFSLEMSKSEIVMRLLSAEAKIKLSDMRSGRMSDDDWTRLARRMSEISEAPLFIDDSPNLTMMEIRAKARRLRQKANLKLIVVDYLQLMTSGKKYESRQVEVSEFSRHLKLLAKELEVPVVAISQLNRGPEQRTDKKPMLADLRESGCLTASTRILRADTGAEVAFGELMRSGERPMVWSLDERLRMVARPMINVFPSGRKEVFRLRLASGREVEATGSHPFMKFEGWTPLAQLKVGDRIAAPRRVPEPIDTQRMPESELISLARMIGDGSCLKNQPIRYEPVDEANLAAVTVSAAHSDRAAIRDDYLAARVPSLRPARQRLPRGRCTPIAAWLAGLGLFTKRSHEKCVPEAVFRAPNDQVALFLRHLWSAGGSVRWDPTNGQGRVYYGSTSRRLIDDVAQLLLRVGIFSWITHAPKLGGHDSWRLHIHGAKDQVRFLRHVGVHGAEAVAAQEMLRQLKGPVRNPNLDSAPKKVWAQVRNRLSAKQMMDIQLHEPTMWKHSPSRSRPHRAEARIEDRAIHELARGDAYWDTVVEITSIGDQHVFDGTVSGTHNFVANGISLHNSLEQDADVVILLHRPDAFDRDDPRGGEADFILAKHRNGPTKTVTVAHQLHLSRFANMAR
# Protein RecA = target: T2, Protein RecA (Mycobacterium tuberculosis, UniProt P9WHJ3); assay: Fluorescence Cell-Free Homogeneous Dose Retest to Identify Inhibitors of RecA-Intein Splicing Activity. [Related pubchem assays (depositor defined):AID2097, AID2223, AID489010, AID492950]; assay type: functional
# T2 sequence (P9WHJ3 whole entry): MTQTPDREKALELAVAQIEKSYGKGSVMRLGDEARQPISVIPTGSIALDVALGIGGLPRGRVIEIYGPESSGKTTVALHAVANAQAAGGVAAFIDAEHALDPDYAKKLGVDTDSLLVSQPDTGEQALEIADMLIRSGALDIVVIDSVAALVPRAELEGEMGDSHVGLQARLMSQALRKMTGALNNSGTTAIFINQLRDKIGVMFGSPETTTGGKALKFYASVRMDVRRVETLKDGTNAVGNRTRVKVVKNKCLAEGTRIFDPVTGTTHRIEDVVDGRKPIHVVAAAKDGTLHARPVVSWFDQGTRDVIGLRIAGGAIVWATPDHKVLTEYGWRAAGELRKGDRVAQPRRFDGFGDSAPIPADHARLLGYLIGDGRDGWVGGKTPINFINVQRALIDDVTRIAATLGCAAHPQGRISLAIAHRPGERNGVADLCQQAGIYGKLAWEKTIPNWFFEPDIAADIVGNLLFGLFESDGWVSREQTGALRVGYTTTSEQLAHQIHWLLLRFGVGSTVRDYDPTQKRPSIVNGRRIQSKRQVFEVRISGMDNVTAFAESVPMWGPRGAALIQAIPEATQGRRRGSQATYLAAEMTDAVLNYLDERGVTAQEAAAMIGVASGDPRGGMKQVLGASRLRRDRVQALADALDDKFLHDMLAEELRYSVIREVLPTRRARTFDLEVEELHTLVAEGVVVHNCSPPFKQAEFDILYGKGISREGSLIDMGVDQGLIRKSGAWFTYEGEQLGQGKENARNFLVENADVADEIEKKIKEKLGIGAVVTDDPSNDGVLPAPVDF
# [3] = target: T3, RNA-binding protein pos-1 (Caenorhabditis elegans, UniProt G5EF15); assay: inhibitors of POS-1/mex-3 RNA binding, dose response, biochemical, fluorescence polarization (AID 1964);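 also: purified POS-1 fused to maltose binding protein made in E. coli; potency of compounds blocking POS-1 binding to fluorescent RNA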
# T3 sequence (G5EF15 whole entry): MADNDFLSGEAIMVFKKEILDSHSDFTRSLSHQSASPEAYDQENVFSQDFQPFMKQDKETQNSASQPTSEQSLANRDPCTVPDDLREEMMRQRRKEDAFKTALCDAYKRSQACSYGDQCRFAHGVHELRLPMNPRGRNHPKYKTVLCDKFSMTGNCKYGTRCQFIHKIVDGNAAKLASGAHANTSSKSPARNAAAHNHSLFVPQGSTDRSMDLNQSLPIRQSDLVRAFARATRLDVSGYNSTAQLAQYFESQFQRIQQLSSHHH
# [4] = target: T4, Zinc finger protein mex-5 (Caenorhabditis elegans, UniProt Q9XUB2); assay: MEX-5/TCR-2 RNA interaction inhibitors, dose response, biochemical, C. elegans, fluorescence polarization (AID 1960)
# T4 sequence (Q9XUB2 whole entry): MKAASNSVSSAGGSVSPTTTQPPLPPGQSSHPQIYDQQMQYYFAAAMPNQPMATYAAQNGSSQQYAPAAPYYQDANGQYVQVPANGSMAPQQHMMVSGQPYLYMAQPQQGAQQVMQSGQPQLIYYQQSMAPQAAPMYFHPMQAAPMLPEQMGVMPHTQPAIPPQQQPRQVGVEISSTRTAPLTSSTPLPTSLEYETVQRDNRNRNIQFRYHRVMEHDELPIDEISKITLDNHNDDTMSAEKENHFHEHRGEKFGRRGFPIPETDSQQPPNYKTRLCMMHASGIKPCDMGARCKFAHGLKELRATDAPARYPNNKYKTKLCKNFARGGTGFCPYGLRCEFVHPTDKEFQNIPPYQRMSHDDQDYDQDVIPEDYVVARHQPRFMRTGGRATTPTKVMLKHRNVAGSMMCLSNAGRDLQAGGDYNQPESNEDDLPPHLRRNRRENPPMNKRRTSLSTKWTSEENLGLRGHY
# [5] = NIH-3T3 fibroblast cytotoxicity, dose response, cytotoxicity control, cell-based, fluorescence, Alamar Blue, secondary assay (AID 2327); assay type: functional;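 also: NIH-3T3 mouse fibroblasts cultured with fluconazole at 8 µg/mL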
# [6] = system: Streptococcus sp. 'group A'; assay: growth inhibition of control SK(-) GAS strain, dose response, counter-screen for streptokinase expression inhibitor project, luminescence, kanamycin, BacTiterGlo, confirmation (AID 1900); assay type: functional, organism-based
# Streptokinase A = target: T5, Streptokinase A (Streptococcus pyogenes serotype M1, UniProt P10520); assay: S. pyogenes streptokinase expression inhibitors, potency, dose response, plasminogen activation absorbance, OD405 (AID 1914); assay type: functional, Streptococcus pyogenes M1 GAS;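 also: secreted streptokinase activity via plasminogen activation per viability signal from cell pellet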
# T5 sequence (P10520 whole entry): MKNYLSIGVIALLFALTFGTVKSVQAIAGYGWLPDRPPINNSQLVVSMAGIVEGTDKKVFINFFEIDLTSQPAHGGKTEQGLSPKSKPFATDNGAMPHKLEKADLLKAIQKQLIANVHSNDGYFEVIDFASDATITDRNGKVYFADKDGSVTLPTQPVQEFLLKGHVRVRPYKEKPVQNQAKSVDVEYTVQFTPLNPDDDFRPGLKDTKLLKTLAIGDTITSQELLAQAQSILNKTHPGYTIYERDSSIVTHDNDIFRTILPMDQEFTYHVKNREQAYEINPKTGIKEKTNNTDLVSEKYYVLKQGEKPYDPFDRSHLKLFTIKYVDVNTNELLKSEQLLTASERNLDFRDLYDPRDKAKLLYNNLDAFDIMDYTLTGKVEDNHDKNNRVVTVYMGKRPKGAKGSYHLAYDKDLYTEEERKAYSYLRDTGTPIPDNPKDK
# Streptococcus = assay: Group A Streptococcus viability loss, dose response, counter-screen for streptokinase expression inhibitor project, luminescence, BacTiterGlo (AID 1915); assay type: functional, organism-based;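 also: potency for reduction of bacterial viability or growth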
# [7] = Luminescence Cell-Based Dose Response HTS to Identify Activators of Luciferase Translation or Activity in H4 […] Cells. [Related pubchem assays: 1829 (Project Summary), 1814 (Primary HTS)]; assay type: functional
# H4 = assay: Luminescence Cell-Based Dose Response HTS to Identify Activators of 5'UTR Stem-Loop Driven Prion Protein mRNA Translation in H4 Neuroglioblastoma Cells. [Related pubchem assays: 1829 (Project Summary), 1814 (Primary HTS)]; assay type: functional; conditions: Homo sapiens
# [8] = target: T6, Heat shock factor protein 1 (Mus musculus, UniProt P38532); assay: inhibition of MG132-induced HSE-luciferase signal, confirmation, cell-based, NIH3T3, luminescence, dose retest (AID 2382); assay type: functional;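 also: NIH3T3 fibroblasts with HSF1-driven luciferase reporter stressed by proteasome inhibitor MG132; luminescence from HSF1-driven luciferase expression after 8 hours of MG132 stress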
# T6 sequence (P38532 whole entry): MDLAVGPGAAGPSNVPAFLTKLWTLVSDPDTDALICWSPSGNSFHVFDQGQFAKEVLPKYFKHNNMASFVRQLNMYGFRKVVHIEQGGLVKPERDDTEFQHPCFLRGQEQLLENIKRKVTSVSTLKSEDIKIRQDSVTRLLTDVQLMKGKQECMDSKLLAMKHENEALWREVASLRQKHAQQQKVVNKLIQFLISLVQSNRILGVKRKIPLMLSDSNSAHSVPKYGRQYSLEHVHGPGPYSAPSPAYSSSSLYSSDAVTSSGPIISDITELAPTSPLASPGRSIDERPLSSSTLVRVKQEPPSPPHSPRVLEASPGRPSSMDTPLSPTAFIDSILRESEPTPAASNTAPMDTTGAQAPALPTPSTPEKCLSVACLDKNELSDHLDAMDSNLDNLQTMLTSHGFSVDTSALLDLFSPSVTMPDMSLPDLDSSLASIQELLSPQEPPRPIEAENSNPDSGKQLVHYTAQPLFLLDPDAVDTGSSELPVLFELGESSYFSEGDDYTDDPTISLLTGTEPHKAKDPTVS
# [9] = Shn3 3'UTR reporter inhibitors, dose response, cell-based, Clone20 osteoblasts, firefly luciferase, cherry-picked (AID 624132); assay type: functional;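 also: firefly luciferase luminescence from reporter carrying the Shn3 3'UTR in osteoblasts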
# [10] = control 3'UTR Renilla luciferase suppression, dose response, counter-screen for Shn3 inhibitor project, cell-based, Clone20-Shn3RL, cherry-picked (AID 624133); assay type: functional
SMILES,CC50 [1],AC50 [2],EC50 (Protein RecA),other results
CCc1ccc(Nc2nnc(SCc3cc(=O)n4ccsc4n3)s2)cc1,26.4 µM (active),,,
Cc1c(-c2nn(C)c(=O)c3ccccc23)oc2ccc(F)cc2c1=O,,3.86 µM (active),2.51 µM (active),
CN(CC(=O)Nc1ccc(N2CCOCC2)cc1)CC(=O)Nc1cccc(C#N)c1,,199 µM (active),> 380 µM (inactive),
CCCCC1=CC2=C(c3ccco3)C(=O)C(C)(OC(=O)c3ccc(OC)cc3)C(=O)C2=CN1C1CCCC1 (stereo unspecified),,,,EC50 [3]: 16 µM (active); EC50 [4]: 14.3 µM (active)
c1ccc(-c2ccc(C3=Nn4c(nnc4-c4cccs4)SC3)cc2)cc1,16.6 µM (active),,,
CC(C)OC(=O)C(C#N)c1nc2ccccc2nc1N1CCCC1 (stereo unspecified),,,,EC50 [3]: > 300 µM (not active); EC50 [4]: > 300 µM (not active)
O=C(CSC1=NCCS1)Nc1ccc(S(=O)(=O)NC2CCCCC2)cc1,,,13.3 µM (active),
CN(c1ccccc1)S(=O)(=O)c1cccc(NC(=O)c2cccc(C#N)c2)c1,16.1 µM (active),,,
Cc1ccc(S(=O)(=O)N2CCN(C(=O)c3ccc(N4CCCCC4)c([N+](=O)[O-])c3)CC2)cc1,> 50 µM (active),,,
Cc1cc(NC(=O)COC(=O)[C@@H](NS(=O)(=O)c2ccc(Br)cc2)C(C)C)no1,,,,EC50 [5]: > 150 µM (inactive)
COC(=O)CC1=NN(c2ccccc2)C(=O)C1,,13.2 µM (active),4.42 µM (active),
CN1C(=O)N(C)c2cccc3cccc1c23,22.5 µM (active),,,
O=C(c1ccc(Br)s1)N1CCN(c2ccccn2)CC1,,,,EC50 [3]: > 300 µM (not active); EC50 [4]: > 300 µM (not active)
CCc1cc(C(=O)c2ccc(C)cc2)c(NC(=O)CCl)s1,,3.98 µM (active),1.07 µM (active),
Cc1ccc(C2C(C#N)=C(N)Oc3[nH]nc(-c4cccnc4)c32)o1 (stereo unspecified),,25.6 µM (active),6.46 µM (active),
O=S(=O)(c1ccccc1F)N1CCC(c2nc(O)c3nnn(Cc4ccc(F)cc4)c3n2)CC1,27 µM (active),,,
O=C1CCSc2ccc(Cl)cc2N1Cc1ccc(Cl)cc1,23.4 µM (active),,,EC50 [6]: 7.8 µM (active); EC50 (Streptokinase A): 18.4 µM (active); EC50 (Streptococcus): 49.5 µM (active)
Cc1ccc([N+](=O)[O-])cc1S(=O)(=O)N(C(=O)c1ccncc1)c1ccc2oc3c(c2c1)CCCC3,,42 µM (active),10.8 µM (active),
CC(=O)Nc1ccc(NC(=O)CSc2ccc3nnc(CCNS(=O)(=O)c4ccc(C)cc4)n3n2)cc1,,,,EC50 [5]: > 160 µM (inactive)
CCSC1=NC(/C=C/c2ccc(Cl)cc2Cl)=CC(C)(C)N1,18 µM (active),,,
Cc1nn(Cc2ccccc2)c2c1C(c1ccccc1)C(C#N)=C(N)O2 (stereo unspecified),,8.53 µM (active),3.64 µM (active),
Cc1ccc(C)c(N2CCN(S(=O)(=O)c3ccc(-c4cc(C)no4)s3)CC2)c1,> 50 µM (active),,,
CC(C)(c1ccccc1)c1ccc(OCC2CO2)cc1 (stereo unspecified),,10 µM (active),11.9 µM (active),
Cn1nc(C(F)(F)F)c2cc(C(=O)Nc3ccc(Cl)cc3)sc21,21.4 µM (active),,,
COC(=O)Cc1n[nH]c2c1C(c1ccc(O)c(OC)c1)C(C#N)=C(N)O2 (stereo unspecified),,7.51 µM (inconclusive),2.88 µM (active),
O=C(CNC(=O)c1ccc(F)cc1)c1ccc(Cl)cc1,,,,EC50 [7]: 0.717 µM (active); EC50 (H4): 79 µM (active)
C=CC/N=C1/S/C(=C/c2cccc([N+](=O)[O-])c2)C(=O)N1CC=C,28 µM (active),,,
COCCN1Cc2cccc(C(=O)Nc3ccc4c(c3)OCCO4)c2C1=O,,,,EC50 [8]: 11.6 µM (active); AC50 [9]: 27.1 µM (active); AC50 [10]: 19.1 µM (active)
